Laboratory results published in patent US4920103A, “Modifications of mycinose and 3-O-demethylmycinose in tylosin-type macrolides” (Eli Lilly and Company, priority 1986, dated 1990).
In brackets after ≈: the same amount, converted by molar mass. Where two headings read alike, the source gives them in different places.

Assays:
[1] = system: Staphylococcus aureus X1.1; test: MIC, standard agar-dilution assay, S. aureus X1.1; assay type: cell-based
Procedure: (§1) The MIC's in Table II were determined by standard agar-dilution assays. The MIC's in Table III were obtained using conventional broth-dilution microtiter tests.

[2] = system: Staphylococcus aureus V41; test: MIC, standard agar-dilution assay, S. aureus V41; assay type: cell-based; settings: Staphylococcus aureus, V41
Procedure: as §1

[3] = system: Staphylococcus aureus X400; test: MIC, standard agar-dilution assay, S. aureus X400; assay type: cell-based
Procedure: as §1

[4] = system: Staphylococcus aureus S13E; test: MIC, standard agar-dilution assay, S. aureus S13E; assay type: cell-based
Procedure: as §1

[5] = system: Staphylococcus epidermidis EPI1; test: MIC, standard agar-dilution assay, S. epidermidis EPI1; assay type: cell-based
Procedure: as §1

[6] = system: Staphylococcus epidermidis 222; test: MIC, standard agar-dilution assay, S. epidermidis 222; assay type: cell-based
Procedure: as §1

[7] = system: Streptococcus pyogenes C203; test: MIC, standard agar-dilution assay, S. pyogenes C203; assay type: cell-based; settings: Streptococcus pyogenes, C203
Procedure: as §1

[8] = system: Streptococcus pneumoniae Park I; test: MIC, standard agar-dilution assay, S. pneumoniae Park I; assay type: cell-based; settings: Streptococcus pneumoniae
Procedure: as §1

[9] = system: Streptococcus Group D X66; test: MIC, standard agar-dilution assay, Streptococcus Group D X66; assay type: cell-based
Procedure: as §1

[10] = system: Streptococcus Group D 2041; test: MIC, standard agar-dilution assay, Streptococcus Group D 2041; assay type: cell-based; settings: GROUPD2041
Procedure: as §1

[11] = system: Haemophilus influenzae C.L.; test: MIC, standard agar-dilution assay, H. influenzae C.L.; assay type: cell-based
Procedure: as §1

[12] = system: Haemophilus influenzae 76; test: MIC, standard agar-dilution assay, H. influenzae 76; assay type: cell-based
Procedure: as §1

Escherichia coli EC14 = test: MIC, standard agar-dilution assay, E. coli EC14; assay type: cell-based
Procedure: as §1

[13] = system: Klebsiella pneumoniae X68; test: MIC, standard agar-dilution assay, K. pneumoniae X68; assay type: cell-based
Procedure: as §1

[14] = system: Pseudomonas aeruginosa X239; test: MIC, standard agar-dilution assay, P. aeruginosa X239; assay type: cell-based
Procedure: as §1

Staphylococcus aureus = test: MIC, broth-dilution microtiter test, S. aureus; assay type: cell-based
Procedure: as §1

Streptococcus sp. 19F = test: MIC, broth-dilution microtiter test, Streptococcus sp. 19F; assay type: cell-based; settings: Streptococcus, SP.19F
Procedure: as §1

[15] = system: Pasteurella multocida 17E; test: MIC, broth-dilution microtiter test, P. multocida 17E; assay type: cell-based; settings: Pasteurella multocida, 17E
Procedure: as §1

[16] = system: Pasteurella multocida 60A; test: MIC, broth-dilution microtiter test, P. multocida 60A; assay type: cell-based
Procedure: as §1

[17] = system: Pasteurella multocida 40G; test: MIC, broth-dilution microtiter test, P. multocida 40G; assay type: cell-based
Procedure: as §1

[18] = system: Pasteurella multocida 22A; test: MIC, broth-dilution microtiter test, P. multocida 22A; assay type: cell-based
Procedure: as §1

[19] = system: Pasteurella multocida 68C; test: MIC, broth-dilution microtiter test, P. multocida 68C; assay type: cell-based
Procedure: as §1

[20] = system: Pasteurella hemolytica 23C; test: MIC, broth-dilution microtiter test, P. hemolytica 23C; assay type: cell-based
Procedure: as §1

[21] = system: Pasteurella hemolytica 41D; test: MIC, broth-dilution microtiter test, P. hemolytica 41D; assay type: cell-based
Procedure: as §1

[22] = system: Pasteurella hemolytica 22C; test: MIC, broth-dilution microtiter test, P. hemolytica 22C; assay type: cell-based
Procedure: as §1

[23] = system: Bordetella bronchiseptica; test: MIC, broth-dilution microtiter test, B. bronchiseptica; assay type: cell-based
Procedure: as §1

[24] = system: Mycoplasma gallisepticum 29C; test: MIC, broth-dilution microtiter test, M. gallisepticum 29C; assay type: cell-based; settings: Mycoplasmoides gallisepticum
Procedure: as §1

[25] = system: Mycoplasma gallisepticum 36H; test: MIC, broth-dilution microtiter test, M. gallisepticum 36H; assay type: cell-based; settings: Mycoplasmoides gallisepticum
Procedure: as §1

Mycoplasma synoviae 40A = test: MIC, broth-dilution microtiter test, M. synoviae 40A; assay type: cell-based; settings: Mycoplasmopsis synoviae, 40A
Procedure: as §1

Mycoplasma hyorhinis 29E = test: MIC, broth-dilution microtiter test, M. hyorhinis 29E; assay type: cell-based; settings: Mycoplasma, 29E
Procedure: as §1

[26] = system: Mycoplasma hyopneumoniae S5972; test: MIC, broth-dilution microtiter test, M. hyopneumoniae S5972; assay type: cell-based; settings: Mesomycoplasma hyopneumoniae, S5972
Procedure: as §1

[27] = system: Mycoplasma gallisepticum 15E; test: MIC, broth-dilution microtiter test, M. gallisepticum 15E; assay type: cell-based; settings: Mycoplasmoides gallisepticum
Procedure: as §1

[28] = system: Streptococcus pyogenes C203; test: Protection of mice experimentally infected with Streptococcus pyogenes C203; assay type: in vivo; settings: Streptococcus pyogenes, doses given 1 and 4 hours postinfection, read-out: ED50
Procedure: The formula 1 compounds have shown in vivo antimicrobial activity against experimentally-induced infections in laboratory animals. When two doses of test compound were administered to mice experimentally infected with Streptococcus pyogenes C203, the activity observed was measured as an ED50 value [effective dose in mg/kg to protect 50% of the test animals: see Warren Wick, et al., J. Bacteriol. 81, 233-235 (1961)].
^a mg/kg × 2; doses given 1 and 4 hours postinfection

[29] = broth-dilution microtiter, read-out: MIC

SMILES	MIC [1] [µg/mL]	MIC [2] [µg/mL]	MIC [3] [µg/mL]	MIC [4] [µg/mL]	MIC [5] [µg/mL]	MIC [7] [µg/mL]	MIC [8] [µg/mL]	MIC [9] [µg/mL]	MIC [10] [µg/mL]	MIC [11] [µg/mL]	MIC [12] [µg/mL]	MIC (Escherichia coli EC14) [µg/mL]	MIC [13] [µg/mL]	MIC [14] [µg/mL]	MIC (Staphylococcus aureus) [µg/mL]	MIC [15] [µg/mL]	MIC [16] [µg/mL]	MIC [17] [µg/mL]	MIC [18] [µg/mL]	MIC [19] [µg/mL]	further results
CCC1OC(=O)CC(O)C(C)C(OC2OC(C)C(OC(C)=O)C(N(C)C)C2OC(C)=O)C(CCOc2ccccc2)CC(C)C(=O)C=CC(C)=CC1COC1OC(C)CC(OC)C1OC (centres unmarked) [Compound 10, 2',4'-Di-O-acetyl-4"-deoxy-20-DH-20-O-phenyl-desmycosin]	0.25 (≈ 0.272 µM)	0.5 (≈ 0.545 µM)	0.5 (≈ 0.545 µM)	0.5 (≈ 0.545 µM)	0.25 (≈ 0.272 µM)	0.5 (≈ 0.545 µM)	0.5 (≈ 0.545 µM)	2 (≈ 2.18 µM)	4 (≈ 4.36 µM)	64 (≈ 69.7 µM)	64 (≈ 69.7 µM)	> 128	> 128	> 128	0.78 (≈ 0.85 µM)	50 (≈ 54.5 µM)	> 50	> 50	> 50	50 (≈ 54.5 µM)	MIC [6]: 0.25 µg/mL (≈ 0.272 µM); MIC (Streptococcus sp. 19F; [29]): 6.25 µg/mL (≈ 6.81 µM); MIC [20]: 50 µg/mL (≈ 54.5 µM); MIC [21]: 50 µg/mL (≈ 54.5 µM); MIC [22]: > 50 µg/mL; MIC [23]: > 50 µg/mL; MIC [24, 29]: < 0.048 µg/mL; MIC [25, 29]: 25 µg/mL (≈ 27.2 µM); MIC (Mycoplasma synoviae 40A): 3.12 µg/mL (≈ 3.4 µM); MIC (Mycoplasma hyorhinis 29E; [29]): 25 µg/mL (≈ 27.2 µM); MIC [26, 29]: 6.25 µg/mL (≈ 6.81 µM)
CCC1OC(=O)CC(O)C(C)C(OC2OC(C)C(O)C(N(C)C)C2O)C(CCOc2ccccc2)CC(C)C(=O)C=CC(C)=CC1COC1OC(C)CC(OC)C1OC (centres unmarked) [Compound 11, 4"-Deoxy-20-DH-20-O-phenyl-desmycosin]	0.25 (≈ 0.3 µM)	0.25 (≈ 0.3 µM)	0.25 (≈ 0.3 µM)	0.25 (≈ 0.3 µM)	0.25 (≈ 0.3 µM)	0.25 (≈ 0.3 µM)	0.25 (≈ 0.3 µM)	2 (≈ 2.4 µM)	4 (≈ 4.8 µM)	32 (≈ 38.4 µM)	32 (≈ 38.4 µM)	> 128	> 128	> 128	0.78 (≈ 0.935 µM)	25 (≈ 30 µM)	25 (≈ 30 µM)	25 (≈ 30 µM)	25 (≈ 30 µM)	12.5 (≈ 15 µM)	MIC ([6]; agar-dilution, read-out: MIC): 0.125 µg/mL (≈ 0.15 µM); MIC (Streptococcus sp. 19F): 12.5 µg/mL (≈ 15 µM); MIC [20]: 25 µg/mL (≈ 30 µM); MIC [21]: 25 µg/mL (≈ 30 µM); MIC [22]: 25 µg/mL (≈ 30 µM); MIC [23]: > 50 µg/mL; MIC [24]: 0.39 µg/mL (≈ 0.468 µM); MIC [27]: 12.5 µg/mL (≈ 15 µM); MIC [25]: 25 µg/mL (≈ 30 µM); MIC (Mycoplasma synoviae 40A): 1.56 µg/mL (≈ 1.87 µM); MIC (Mycoplasma hyorhinis 29E): 25 µg/mL (≈ 30 µM); MIC [26]: > 25 µg/mL; ED50 ([28]; C203, oral): 34 mg/kg; ED50 ([28]; C203, sc, subcutaneous): 10 mg/kg
